Data: patent US20250215030A1, “STAT MODULATORS AND USES THEREOF” (Recludix Pharma, Inc., priority 2022, published 2025)
Blank lines part the entries; values can stand above or below the compound they belong to.

Assays:
[1] = molecular target: T1, Recombinant STAT6 protein (STAT6(W123-T658)) (Homo sapiens, UniProt P42226); test: STAT6 Fluorescence Polarization (FP) Assay; format: binding; conditions: STAT6(W123-T658) 250 nM, probe 5-FAM-ApYKPFQDLI-NH2 2 nM, 45-minute incubation
T1 construct: STAT6(W123-T658)
T1 sequence (P42226 123-658): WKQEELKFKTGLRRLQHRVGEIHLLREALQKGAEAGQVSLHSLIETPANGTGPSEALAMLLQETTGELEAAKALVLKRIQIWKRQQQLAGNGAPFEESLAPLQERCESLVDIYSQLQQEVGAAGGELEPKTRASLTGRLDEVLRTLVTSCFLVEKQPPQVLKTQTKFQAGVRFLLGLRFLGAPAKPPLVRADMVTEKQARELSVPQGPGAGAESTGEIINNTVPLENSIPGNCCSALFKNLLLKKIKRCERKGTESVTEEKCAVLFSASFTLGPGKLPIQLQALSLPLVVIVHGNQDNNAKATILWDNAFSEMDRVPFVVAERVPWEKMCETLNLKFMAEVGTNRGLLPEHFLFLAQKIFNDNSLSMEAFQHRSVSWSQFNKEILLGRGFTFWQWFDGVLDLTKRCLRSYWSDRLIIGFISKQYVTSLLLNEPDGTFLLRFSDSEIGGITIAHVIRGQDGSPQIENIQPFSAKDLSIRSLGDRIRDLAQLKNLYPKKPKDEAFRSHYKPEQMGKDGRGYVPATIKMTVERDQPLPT
Method in brief: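 Competitive displacement of a fluorescent phosphotyrosine peptide (2 nM) from recombinant STAT6 W123-T658 (250 nM), 45 min at room temperature in 10 mM HEPES pH 7.4, 50 mM NaCl, 2 mM DTT. mP fitted against log compound for IC50, grouped A (≤300 nM) to D (>30 μM).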

[2] = molecular target: T2, Recombinant STAT3 protein (STAT3(G127-I722)) (Homo sapiens, UniProt P40763); test: STAT3 Fluorescence Polarization (FP) Assay; format: binding; conditions: STAT3(G127-I722) 25 nM, probe 5-FAM-GpYLPQTV-NH2 2 nM, 45-minute incubation
T2 construct: STAT3(G127-I722)
T2 sequence (P40763 127-722, species assumed): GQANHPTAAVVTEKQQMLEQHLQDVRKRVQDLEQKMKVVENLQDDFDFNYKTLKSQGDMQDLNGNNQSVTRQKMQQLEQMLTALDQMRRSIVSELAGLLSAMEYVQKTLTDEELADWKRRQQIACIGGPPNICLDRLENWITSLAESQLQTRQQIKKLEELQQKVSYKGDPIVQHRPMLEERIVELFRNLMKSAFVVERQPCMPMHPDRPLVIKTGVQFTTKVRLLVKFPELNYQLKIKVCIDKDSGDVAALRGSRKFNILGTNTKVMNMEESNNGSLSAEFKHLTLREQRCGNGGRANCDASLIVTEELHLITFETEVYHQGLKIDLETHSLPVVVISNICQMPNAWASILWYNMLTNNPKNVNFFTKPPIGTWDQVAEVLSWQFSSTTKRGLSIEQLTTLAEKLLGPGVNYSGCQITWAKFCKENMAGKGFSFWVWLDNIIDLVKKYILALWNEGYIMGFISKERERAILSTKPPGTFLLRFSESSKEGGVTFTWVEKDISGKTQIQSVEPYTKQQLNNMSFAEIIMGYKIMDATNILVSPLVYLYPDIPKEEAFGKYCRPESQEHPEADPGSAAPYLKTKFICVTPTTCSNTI
Method in brief: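 Serially diluted compounds (1% DMSO) were mixed with 2 nM fluorescent phosphotyrosine peptide and 25 nM STAT3 construct G127-I722, pH 7.4, incubated 45 min at room temperature. IC50 values from fitted polarization curves are reported as categories A (≤100 nM), B, C, D (>10 μM).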

SMILES: O=C(N[C@H]1C[C@H]2[C@@H](C[C@H]3CC[C@@H](C(=O)N4CC(C(=O)N5CCOCC5)C4)N3C1=O)C2(F)F)c1cc2cc(C(F)(F)P(=O)(O)O)ccc2s1 [Compound 30, ((2-(((3S,6S,7aS,8aR,9aR)-8,8-difluoro-3-(3-(morpholine-4-carbonyl)azetidine-1-carbonyl)-5-oxodecahydro-1H-cyclopropa[d]pyrrolo[1,2-a]azocin-6-yl)carbamoyl)benzo[b]thiophen-5-yl)difluoromethyl)phosphonic acid]
IC50 [1]: 3 to 30 µM
IC50 [2]: < 0.1 µM

SMILES: O=C(N[C@H]1C[C@@H]2C[C@@H]2C[C@H]2CC[C@@H](C(=O)N3CC(c4cccnc4)C3)N2C1=O)c1cc2cc(C(F)(F)P(=O)(O)O)ccc2s1 [Compound 36, (difluoro(2-(((3S,6S,7aS,8aR,9aR)-5-oxo-3-(3-(pyridin-3-yl)azetidine-1-carbonyl)decahydro-1H-cyclopropa[d]pyrrolo[1,2-a]azocin-6-yl)carbamoyl)benzo[b]thiophen-5-yl)methyl)phosphonic acid]
IC50 [1]: 0.3 to 3 µM
IC50 [2]: < 0.1 µM

SMILES: C[C@]12CC(NC(=O)c3cc4cc(C(F)(F)P(=O)(O)O)ccc4s3)C(=O)N3[C@H](CC[C@H]3C(=O)N3CC(c4cccnc4)C3)[C@H]1C2 (stereo partly drawn) [Compound 37, (difluoro(2-(((3S,6S,7aS,8aR,9aR)-7a-methyl-5-oxo-3-(3-(pyridin-3-yl)azetidine-1-carbonyl)decahydro-1H-cyclopropa[d]pyrrolo[1,2-a]azocin-6-yl)carbamoyl)benzo[b]thiophen-5-yl)methyl)phosphonic acid]
IC50 [1]: 3 to 30 µM
IC50 [2]: < 0.1 µM

SMILES: O=C(N[C@H]1C[C@@H]2C[C@@H]2C[C@H]2CC[C@@H](C(=O)N[C@@H]3CCN(c4ccccn4)C3)N2C1=O)c1cc2cc(C(F)(F)P(=O)(O)O)ccc2s1 [Compound 39, (difluoro(2-(((3S,6S,7aS,8aR,9aR)-5-oxo-3-(((R)-1-(pyridin-2-yl)pyrrolidin-3-yl)carbamoyl)decahydro-1H-cyclopropa[d]pyrrolo[1,2-a]azocin-6-yl)carbamoyl)benzo[b]thiophen-5-yl)methyl)phosphonic acid]
IC50 [1]: 3 to 30 µM
IC50 [2]: < 0.1 µM

SMILES: CC(=O)N1CC2(C1)CN(C(=O)[C@@H]1CC[C@@H]3C[C@H]4C[C@H]4C[C@H](NC(=O)c4cc5cc(C(F)(F)P(=O)(O)O)ccc5s4)C(=O)N31)C2 [Compound 40, ((2-(((3S,6S,7aS,8aR,9aR)-3-(6-acetyl-2,6-diazaspiro[3.3]heptane-2-carbonyl)-5-oxodecahydro-1H-cyclopropa[d]pyrrolo[1,2-a]azocin-6-yl)carbamoyl)benzo[b]thiophen-5-yl)difluoromethyl)phosphonic acid]
IC50 [1]: 0.3 to 3 µM
IC50 [2]: < 0.1 µM

SMILES: O=C(N[C@H]1C[C@@H]2C[C@@H]2C[C@H]2CC[C@@H](C(=O)N3CCN(C(=O)C4COC4)CC3)N2C1=O)c1cc2cc(C(F)(F)P(=O)(O)O)ccc2s1 [Compound 42, (difluoro(2-(((3S,6S,7aS,8aR,9aR)-3-(4-(oxetane-3-carbonyl)piperazine-1-carbonyl)-5-oxodecahydro-1H-cyclopropa[d]pyrrolo[12-a]azocin-6-yl)carbamoyl)benzo[b]thiophen-5-yl)methyl)phosphonic acid]
IC50 [1]: 0.3 to 3 µM
IC50 [2]: 0.1 to 1 µM

SMILES: O=C(N[C@H]1C[C@@H]2C[C@@H]2C[C@H]2CC[C@@H](C(=O)NC3CN(c4ccccn4)C3)N2C1=O)c1cc2cc(C(F)(F)P(=O)(O)O)ccc2s1 [Compound 44, (difluoro(2-(((3S,6S,7aS,8aR,9aR)-5-oxo-3-((1-(pyridin-2-yl)azetidin-3-yl)carbamoyl)decahydro-1H-cyclopropa[d]pyrrolo[1,2-a]azocin-6-yl)carbamoyl)benzo[b]thiophen-5-yl)methyl)phosphonic acid]
IC50 [1]: 0.3 to 3 µM
IC50 [2]: < 0.1 µM

SMILES: O=C(N[C@H]1C[C@@H]2C[C@@H]2C[C@H]2CC[C@@H](C(=O)N3CC(n4ccnc4)C3)N2C1=O)c1ccc2ccc(C(F)(F)P(=O)(O)O)cc2c1 [Compound 46, ((7-(((3S,6S,7aS,8aR,9aR)-3-(3-(1H-imidazol-1-yl)azetidine-1-carbonyl)-5-oxodecahydro-1H-cyclopropa[d]pyrrolo[1,2-a]azocin-6-yl)carbamoyl)naphthalen-2-yl)difluoromethyl)phosphonic acid]
IC50 [1]: 0.3 to 3 µM
IC50 [2]: < 0.1 µM

Results, then the compound that gave them:

IC50 [1]: 0.3 to 3 µM
IC50 [2]: < 0.1 µM
SMILES: NC(=O)Cc1cc(-c2ccccc2)ccc1NC(=O)[C@@H]1CC[C@@H]2C[C@H]3C[C@H]3C[C@H](NC(=O)c3cc4cc(C(F)(F)P(=O)(O)O)ccc4s3)C(=O)N21 [Compound 26, ((2-(((3S,6S,7aS,8aR,9aR)-3-((3-(2-amino-2-oxoethyl)-[1,1′-biphenyl]-4-yl)carbamoyl)-5-oxodecahydro-1H-cyclopropa[d]pyrrolo[1,2-a]azocin-6-yl)carbamoyl)benzo[b]thiophen-5-yl)difluoromethyl)phosphonic acid]

IC50 [1]: 3 to 30 µM
IC50 [2]: 0.1 to 1 µM
SMILES: COC1(c2nccn2C)CN(C(=O)[C@@H]2CC[C@@H]3C[C@@H]4[C@H](C[C@H](NC(=O)c5cc6cc(C(F)(F)P(=O)(O)O)ccc6s5)C(=O)N32)C4(F)F)C1 [Compound 29, ((2-(((3S,6S,7aS,8aR,9aR)-8,8-difluoro-3-(3-methoxy-3-(1-methyl-1H-imidazol-2-yl)azetidine-1-carbonyl)-5-oxodecahydro-1H-cyclopropa[d]pyrrolo[1,2-a]azocin-6-yl)carbamoyl)benzo[b]thiophen-5-yl)difluoromethyl)phosphonic acid]

IC50 [1]: 3 to 30 µM
IC50 [2]: < 0.1 µM
SMILES: O=C(N[C@H]1C[C@H]2[C@@H](C[C@H]3CC[C@@H](C(=O)N4CC(c5cccnc5)C4)N3C1=O)C2(F)F)c1cc2cc(C(F)(F)P(=O)(O)O)ccc2s1 [Compound 31, ((2-(((3S,6S,7aS,8aR,9aR)-8,8-difluoro-5-oxo-3-(3-(pyridin-3-yl)azetidine-1-carbonyl)decahydro-1H-cyclopropa[d]pyrrolo[1,2-a]azocin-6-yl)carbamoyl)benzo[b]thiophen-5-yl)difluoromethyl)phosphonic acid]

IC50 [1]: 0.3 to 3 µM
IC50 [2]: < 0.1 µM
SMILES: O=C(N[C@H]1C[C@@H]2C[C@@H]2C[C@H]2CC[C@@H](C(=O)Nc3ccc(-c4ccccc4)cc3)N2C1=O)c1cc2cc(C(F)(F)P(=O)(O)O)ccc2s1 [Compound 32, ((2-(((3S,6S,7aS,8aR,9aR)-3-([1,1′-biphenyl]-4-ylcarbamoyl)-5-oxodecahydro-1H-cyclopropa[d]pyrrolo[1,2-a]azocin-6-yl)carbamoyl)benzo[b]thiophen-5-yl)difluoromethyl)phosphonic acid]

IC50 [1]: > 30 µM
IC50 [2]: 0.1 to 1 µM
SMILES: CC(c1ccc2sc(C(=O)N[C@H]3C[C@@H]4C[C@@H]4C[C@H]4CC[C@@H](C(=O)N5CC(C(=O)N6CCOCC6)C5)N4C3=O)cc2c1)P(=O)(O)O (stereo partly drawn) [Compound 35, (1-(2-(((3S,6S,7aS,8aR,9aR)-3-(3-(morpholine-4-carbonyl)azetidine-1-carbonyl)-5-oxodecahydro-1H-cyclopropa[d]pyrrolo[1,2-a]azocin-6-yl)carbamoyl)benzo[b]thiophen-5-yl)ethyl)phosphonic acid]

IC50 [1]: 3 to 30 µM
IC50 [2]: 0.1 to 1 µM
SMILES: C[C@@]12C[C@H](NC(=O)c3cc4cc(C(F)(F)P(=O)(O)O)ccc4s3)C(=O)N3[C@H](CC[C@H]3C(=O)N3CC(c4cccnc4)C3)[C@@H]1C2 [Compound 38, (difluoro(2-(((3S,6S,7aR,8aS,9aR)-7a-methyl-5-oxo-3-(3-(pyridin-3-yl)azetidine-1-carbonyl)decahydro-1H-cyclopropa[d]pyrrolo[1,2-a]azocin-6-yl)carbamoyl)benzo[b]thiophen-5-yl)methyl)phosphonic acid]

IC50 [1]: 0.3 to 3 µM
IC50 [2]: < 0.1 µM
SMILES: O=C(N[C@H]1C[C@@H]2C[C@@H]2C[C@H]2CC[C@@H](C(=O)N3CC4(CN(C(=O)Cc5ccccc5)C4)C3)N2C1=O)c1cc2cc(C(F)(F)P(=O)(O)O)ccc2s1 [Compound 41, (difluoro(2-(((3S,6S,7aS,8aR,9aR)-5-oxo-3-(6-(2-phenylacetyl)-2,6-diazaspiro[3.3]heptane-2-carbonyl)decahydro-1H-cyclopropa[d]pyrrolo[1,2-a]azocin-6-yl)carbamoyl)benzo[b]thiophen-5-yl)methyl)phosphonic acid]

IC50 [1]: 3 to 30 µM
IC50 [2]: 0.1 to 1 µM
SMILES: O=C(N[C@H]1C[C@@H]2C[C@@H]2C[C@H]2CC[C@@H](C(=O)N3CCN(C4COC4)CC3)N2C1=O)c1cc2cc(C(F)(F)P(=O)(O)O)ccc2s1 [Compound 43, (difluoro(2-(((3S,6S,7aS,8aR,9aR)-3-(4-(oxetan-3-yl)piperazine-1-carbonyl)-5-oxodecahydro-1H-cyclopropa[d]pyrrolo[1,2-a]azocin-6-yl)carbamoyl)benzo[b]thiophen-5-yl)methyl)phosphonic acid]
